Experimental data reported in paper PMC8286840, “Identifying SARS-CoV-2 antiviral compounds by screening for small molecule inhibitors of Nsp3 papain-like protease” (Biochemical Journal, 2021).
Counter-ions that a name gives are not always drawn. Like-named read-outs stand apart in the source and are kept apart here.

Key:
[1] = biological target: T1, SARS-CoV-2 PLpro (nsp3 1564–1878) (Severe acute respiratory syndrome coronavirus 2, UniProt P0DTD1); test: biochemical; parameters: FRET-quenched peptide (Pro3) cleavage by PLpro, 10 min pre-incubation, slope over 20 min, normalised to no-compound control; settings: low concentration screen, read-out: % of control remaining
[2] = biological target: T1, SARS-CoV-2 PLpro (nsp3 1564–1878); test: biochemical; parameters: FRET-quenched peptide (Pro3) cleavage by PLpro, 10 min pre-incubation, slope over 20 min, normalised to no-compound control; settings: high concentration screen, read-out: % of control remaining

SMILES: C=C1C(=O)[C@]23[C@H](O)[C@H]1CC[C@H]2[C@@]12CO[C@]3(O)[C@@H](O)[C@@H]1C(C)(C)CC[C@@H]2O [Oridonin]
- remaining activity at 1.25 µM ([1]; Well no.=3255): 101%
- remaining activity at 3.75 µM ([2]; Well no.=3255): 103%

SMILES: CCCCCCCCCCC[C@@H](C[C@@H]1OC(=O)[C@H]1CCCCCC)OC(=O)[C@H](CC(C)C)NC=O [Orlistat]
- remaining activity at 1.25 µM ([1]; Well no.=7366): 101%
- remaining activity at 3.75 µM ([2]; Well no.=7366): 101%

SMILES: Cc1ncc([N+](=O)[O-])n1CC(O)CCl (centres unmarked) [Ornidazole]
- remaining activity at 1.25 µM ([1]; Well no.=4939): 101%
- remaining activity at 3.75 µM ([2]; Well no.=4939): 97.6%

SMILES: O=C(O)c1cc(=O)[nH]c(=O)[nH]1 [Orotic acid (6-Carboxyuracil)]
- remaining activity at 1.25 µM ([1]; Well no.=8146): 105%
- remaining activity at 3.75 µM ([2]; Well no.=8146): 98.3%

SMILES: O=C(O)c1cc(=O)[nH]c(=O)[nH]1 [Orotic acid]
- remaining activity at 1.25 µM ([1]; Well no.=6207): 108%
- remaining activity at 3.75 µM ([2]; Well no.=6207): 99.7%

SMILES: O=C(Nc1ccc(O)cc1)c1ccccc1O [Osalmid]
- remaining activity at 1.25 µM ([1]; Well no.=8152): 100%
- remaining activity at 3.75 µM ([2]; Well no.=8152): 100%

SMILES: COc1ccc2ccc(=O)oc2c1CC=C(C)C [Osthole]
- remaining activity at 1.25 µM ([1]; Well no.=3440): 91.5%
- remaining activity at 1.25 µM ([1]; Well no.=8333): 98.6%
- remaining activity at 3.75 µM ([2]; Well no.=3440): 88.2%
- remaining activity at 3.75 µM ([2]; Well no.=8333): 94.5%

SMILES: CCNC1(C(N)=O)CCN(c2ncnc3c2nc(-c2ccccc2Cl)n3-c2ccc(Cl)cc2)CC1 [Otenabant (CP-945598) HCl]
- remaining activity at 1.25 µM ([1]; Well no.=8494): 103%
- remaining activity at 3.75 µM ([2]; Well no.=8494): 108%

SMILES: CCNC1(C(N)=O)CCN(c2ncnc3c2nc(-c2ccccc2Cl)n3-c2ccc(Cl)cc2)CC1 [Otenabant]
- remaining activity at 1.25 µM ([1]; Well no.=8393): 93.1%
- remaining activity at 3.75 µM ([2]; Well no.=8393): 87.6%

SMILES: CCCCCCCCOc1ccccc1C(=O)Nc1ccc(C(=O)OCC[N+](C)(CC)CC)cc1 [Otilonium (bromide)]
- remaining activity at 1.25 µM ([1]; Well no.=6315): 103%
- remaining activity at 3.75 µM ([2]; Well no.=6315): 97.2%

SMILES: CCCCCCCCOc1ccccc1C(=O)Nc1ccc(C(=O)OCC[N+](C)(CC)CC)cc1 [Otilonium Bromide]
- remaining activity at 1.25 µM ([1]; Well no.=4893): 92.9%
- remaining activity at 3.75 µM ([2]; Well no.=4893): 93.3%

SMILES: C[C@@H]1O[C@@H](O[C@H]2C[C@@H](O)[C@]3(CO)[C@H]4[C@H](O)C[C@]5(C)[C@@H](C6=CC(=O)OC6)CC[C@]5(O)[C@@H]4CC[C@]3(O)C2)[C@H](O)[C@H](O)[C@H]1O [Ouabain]
- remaining activity at 1.25 µM ([1]; Well no.=1088): 93.1%
- remaining activity at 3.75 µM ([2]; Well no.=1088): 94.6%

SMILES: Cc1onc(-c2ccccc2)c1C(=O)N[C@@H]1C(=O)N2[C@@H]1SC(C)(C)[C@@H]2C(=O)O [Oxacillin (sodium monohydrate)]
- remaining activity at 1.25 µM ([1]; Well no.=7552): 99.7%
- remaining activity at 3.75 µM ([2]; Well no.=7552): 97.5%

SMILES: Cc1onc(-c2ccccc2)c1C(=O)N[C@@H]1C(=O)N2[C@@H]1SC(C)(C)[C@@H]2C(=O)O [Oxacillin]
- remaining activity at 1.25 µM ([1]; Well no.=2057): 105%
- remaining activity at 3.75 µM ([2]; Well no.=2057): 103%

SMILES: O=C(O)CCc1nc(-c2ccccc2)c(-c2ccccc2)o1 [Oxaprozin]
- remaining activity at 1.25 µM ([1]; Well no.=1090): 102%
- remaining activity at 3.75 µM ([2]; Well no.=1090): 104%

SMILES: O=c1[nH]c2ccccc2n1CCCN1CCN(C(c2ccccc2)c2ccccc2)CC1 [Oxatomide]
- remaining activity at 1.25 µM ([1]; Well no.=994): 103%
- remaining activity at 1.25 µM ([1]; Well no.=1855): 95.4%
- remaining activity at 3.75 µM ([2]; Well no.=994): 101%
- remaining activity at 3.75 µM ([2]; Well no.=1855): 98.9%

SMILES: NC(=O)N1c2ccccc2CC(=O)c2ccccc21 [Oxcarbazepine]
- remaining activity at 1.25 µM ([1]; Well no.=2053): 103%
- remaining activity at 3.75 µM ([2]; Well no.=2053): 104%

SMILES: COC(=O)Nc1nc2cc([S+]([O-])c3ccccc3)ccc2[nH]1 (centres unmarked) [Oxfendazole]
- remaining activity at 1.25 µM ([1]; Well no.=2059): 105%
- remaining activity at 3.75 µM ([2]; Well no.=2059): 105%

SMILES: CCCOc1ccc2[nH]c(NC(=O)OC)nc2c1 [Oxibendazole]
- remaining activity at 1.25 µM ([1]; Well no.=2061): 99%
- remaining activity at 3.75 µM ([2]; Well no.=2061): 98.3%

SMILES: NCCc1cc(O)c(O)cc1O [Oxidopamine (hydrobromide)]
- remaining activity at 1.25 µM ([1]; Well no.=6940): 92%
- remaining activity at 3.75 µM ([2]; Well no.=6940): 92.3%

SMILES: NC(=O)CN1CC(O)CC1=O (centres unmarked) [Oxiracetam]
- remaining activity at 1.25 µM ([1]; Well no.=1040): 91.2%
- remaining activity at 3.75 µM ([2]; Well no.=1040): 97.5%

SMILES: CCn1cc(C(=O)O)c(=O)c2cc3c(cc21)OCO3 [Oxolinic acid]
- remaining activity at 1.25 µM ([1]; Well no.=1134): 98.1%
- remaining activity at 3.75 µM ([2]; Well no.=1134): 98.5%

SMILES: C[N+](C)(C)CC#CCN1CCCC1=O [Oxotremorine methiodide]
- remaining activity at 1.25 µM ([1]; Well no.=1138): 96.9%
- remaining activity at 3.75 µM ([2]; Well no.=1138): 97.9%

SMILES: O=C1CCCN1CC#CCN1CCCC1 [Oxotremorine]
- remaining activity at 1.25 µM ([1]; Well no.=1673): 104%
- remaining activity at 3.75 µM ([2]; Well no.=1673): 102%

SMILES: Cc1cc(C(C)(C)C)c(O)c(C)c1CC1=NCCN1 [Oxymetazoline (hydrochloride)]
- remaining activity at 1.25 µM ([1]; Well no.=7327): 102%
- remaining activity at 3.75 µM ([2]; Well no.=7327): 99.6%

SMILES: Cc1cc(C(C)(C)C)c(O)c(C)c1CC1=NCCN1 [Oxymetazoline hydrochloride]
- remaining activity at 1.25 µM ([1]; Well no.=896): 103%
- remaining activity at 3.75 µM ([2]; Well no.=896): 101%

SMILES: CN(C)[C@@H]1C(O)=C(C(N)=O)C(=O)[C@@]2(O)C(O)=C3C(=O)c4c(O)cccc4[C@@](C)(O)[C@H]3[C@H](O)[C@@H]12 [Oxytetracycline dihydrate]
- remaining activity at 1.25 µM ([1]; Well no.=4718): 102%
- remaining activity at 3.75 µM ([2]; Well no.=4718): 99.6%

SMILES: CC[C@H](C)[C@@H]1NC(=O)[C@H](Cc2ccc(O)cc2)NC(=O)[C@@H](N)CSSC[C@@H](C(=O)N2CCC[C@H]2C(=O)N[C@@H](CC(C)C)C(=O)NCC(N)=O)NC(=O)[C@H](CC(N)=O)NC(=O)[C@H](CCC(N)=O)NC1=O [Oxytocin (acetate)]
- remaining activity at 1.25 µM ([1]; Well no.=8107): 107%
- remaining activity at 3.75 µM ([2]; Well no.=8107): 104%

SMILES: O=C(O)/C=C/c1ccc(Cn2ccnc2)cc1 [Ozagrel HCl]
- remaining activity at 1.25 µM ([1]; Well no.=4726): 108%
- remaining activity at 3.75 µM ([2]; Well no.=4726): 101%

SMILES: O=C(O)/C=C/c1ccc(Cn2ccnc2)cc1 [Ozagrel]
- remaining activity at 1.25 µM ([1]; Well no.=1886): 91.5%
- remaining activity at 3.75 µM ([2]; Well no.=1886): 93.9%

SMILES: CC(C)Oc1ccc(-c2nc(-c3cccc4c3CC[C@@H]4NCCO)no2)cc1C#N [Ozanimod]
- remaining activity at 1.25 µM ([1]; Well no.=7422): 104%
- remaining activity at 3.75 µM ([2]; Well no.=7422): 106%

SMILES: Nc1ncnc2c1ncn2[C@@H]1O[C@H](COP(=O)(O)OP(=O)(O)OP(=O)(O)OP(=O)(O)OC[C@H]2O[C@@H](n3cnc4c(N)ncnc43)[C@H](O)[C@@H]2O)[C@@H](O)[C@H]1O [P1,P4-Di(adenosine-5')tetraphosphate triammonium]
- remaining activity at 1.25 µM ([1]; Well no.=731): 96.1%
- remaining activity at 3.75 µM ([2]; Well no.=731): 94.1%

SMILES: O=[N+]([O-])c1cn2c(n1)OC[C@@H](OCc1ccc(OC(F)(F)F)cc1)C2 [PA-824]
- remaining activity at 1.25 µM ([1]; Well no.=4709): 104%
- remaining activity at 3.75 µM ([2]; Well no.=4709): 104%

SMILES: C=CCc1cccc(/C=N/NC(=O)CN2CCN(Cc3ccccc3)CC2)c1O [PAC-1]
- remaining activity at 1.25 µM ([1]; Well no.=4697): 103%
- remaining activity at 1.25 µM ([1]; Well no.=6200): 107%
- remaining activity at 3.75 µM ([2]; Well no.=4697): 101%
- remaining activity at 3.75 µM ([2]; Well no.=6200): 93.7%
